Test results reported in patent US10632134B2, “Cannabinoid receptor modulators” (Arena Pharmaceuticals, Inc., priority 2011, dated 2020).

Assays:
[1] = test system: Paclitaxel-induced allodynia; experiment: Paclitaxel-induced allodynia in Sprague Dawley rats (von Frey assay); assay type: in vivo
Protocol: Example 5: Paclitaxel-induced Allodynia in Sprague Dawley Rats
Therapy however is often associated with the unwanted side affects of painful peripheral neuropathy.
Male Sprague Dawley rats [200-250 g] (Harlan Laboratories Inc., Livermore, Calif.) were housed three per cage and maintained in a humidity-controlled (40-60%) and temperature-controlled (68-72° F.) facility on a 12 h:12 h light/dark cycle (lights on at 6:30 am) with free access to food (Harlan Teklad, Orange, Calif., Rodent Diet 8604) and water. Rats were allowed one week of habituation to the animal facility before starting treatment.
Rats were treated intraperitoneally, with 2 mg/kg of paclitaxel (Sigma Aldrich, Saint Louis, Mo.) in 10% Cremophor vehicle (500 μL) on days 0, 2, 4, and 6.
Tactile allodynia was tested using von Frey filaments. Briefly, the von Frey assay was performed using the standardized up down method with von Frey filaments, that determine the tactile sensitivity of the paw. By applying the increasingly or decreasingly thicker filaments to the paw in a logarithmic scale of actual force, a linear scale of perceived intensity is determined.
Eight days after the start of paclitaxel dosing, a baseline measurement (von Frey assay) was performed prior to dosing of compounds. […] As a positive control, rats were dosed intraperitoneally with 100 mg/kg gabapentin in water. […]

[2] = Dynamic moisture-sorption (DMS) analysis; assay type: physicochemical
Protocol: Example 9: Dynamic Moisture-Sorption Analysis
A dynamic moisture-sorption (DMS) study was conducted using a dynamic moisture-sorption analyzer, VTI Corporation, SGA-100. The instrument was calibrated using polyvinyl pyrrolidone (PVP) and NaCl. Samples were prepared for DMS analysis by placing 5 mg to 20 mg of a sample in a tared sample holder. The sample was placed on the hang-down wire of the VTI balance. A drying step was run, typically at 40° C. and 0.5-1% RH for 1 h. The isotherm temperature is 25° C. Defined % RH holds typically ranged from 10% RH to 90% RH, with intervals of 10 to 20% RII. A % weight change smaller than 0.010% over 10 min, or up to 2 h, whichever occurred first, was required before continuing to the next % RH hold. The water content of the sample equilibrated as described above was determined at each % RH hold.

| SMILES | paw withdrawal threshold (PWT) ([1]; 10 mg/kg orally in PEG400, paclitaxel treated rats, von Frey assay 30, 60 and 180 minutes after dosing, in comparison with vehicle and gabapentin) | time of maximum efficacy post-dosing ([1]; 10 mg/kg orally, paclitaxel treated rats, von Frey assay time course) [h] | Weight (% Change) ([2]; Sample RH […], elapsed time 46.6 min, 25.46) | Weight (% Change) ([2]; adsorption, Sample RH 29.94%, elapsed time 71.4 min) | Weight (% Change) ([2]; adsorption, Sample RH 49.86%, elapsed time 91.1 min) | Weight (% Change) ([2]; adsorption, Sample RH 69.77%, elapsed time 111.2 min) | Weight (% Change) ([2]; adsorption, Sample RH 79.70%, elapsed time 129.1 min) | Weight (% Change) ([2]; adsorption, Sample RH 89.72%, elapsed time 160.1 min) | DMS weight change ([2]; adsorption/desorption isotherm, from about 10% relative humidity (RH) to about 90% RH) | DMS weight change ([2]; after a 10% RH to 90% RH back to 10% RH cycle) | Weight (% Change) ([2]; desorption, Sample RH 10.06%, elapsed time 234.4 min) | Weight (% Change) ([2]; desorption, Sample RH 29.99%, elapsed time 218.6 min) | Weight (% Change) ([2]; desorption, Sample RH 50.07%, elapsed time 200.1 min) | Weight (% Change) ([2]; desorption, Sample RH 70.11%, elapsed time 180.1 min) |
| --- | --- | --- | --- | --- | --- | --- | --- | --- | --- | --- | --- | --- | --- | --- |
| CC(C)(CO)NC(=O)c1nn(-c2ccc(F)cc2F)c2c1C[C@H]1C[C@@H]21 [Compound 493, (1aR,5aR)-2-(2,4-Difluoro-phenyl)-1a,2,5,5a-tetrahydro-1H-2,3-diaza-cyclopropa[a]pentalene-4-carboxylic Acid (2-Hydroxy-1,1-dimethyl-ethyl)-amide] | increase | 1 | – | – | – | – | – | – | – | – | – | – | – | – |
| CC(C)(C)[C@@H](CO)NC(=O)c1nn(-c2c[n+]([O-])ccn2)c2c1C[C@@H]1C[C@H]21 [Compound 699 (Anhydrous Form), (1aS,5aS)-2-(4-Oxy-pyrazin-2-yl)-1a,2,5,5a-tetrahydro-1H-2,3-diaza-cyclopropa[a]pentalene-4-carboxylic Acid ((S)-1-Hydroxymethyl-2,2-dimethyl-propyl)-amide] | – | – | 0 | 0.151 | 0.282 | 0.482 | 0.581 | 0.762 | 1.0% or less weight change from about 10% relative humidity | (RH) to about 90% RH; and about 0.1% or less weight change | 0.080 | 0.181 | 0.364 | 0.526 |
